Measurements: patent US20040235939A1, “Synthesis of peloruside a and analogs thereof for use as antitumor agents” (priority 2003, published 2004)
Read-outs that look alike come from different tables or passages of the source.

Assays:
[1] = tested on: NCI-H460; experiment: SRB cytotoxicity assay, NCI-H460; assay type: cell-based; details: Homo sapiens
Protocol: (§1) Cells were treated on Days 1, 3, 5, and 7 with 5 μL of media, vehicle, or drug. Peloruside A was resuspended in 0.1% DMSO and added to wells to a final concentration of 0.01, 0.1, 1, 10 or 100 nM. Taxol® (Sigma-Aldrich) was resuspended in 0.1% ethanol and added to cells to a final concentration of 0.1, 1, 10, 100, or 1000 nM.
(§2) The amount of surviving cells was measured using the sulforhodamine B (SRB) assay as previously described (Skehan et al., New colorimetric cytotoxicity assay for anticancer-drug screening. J. Natl. Cancer Inst., 1990. 82(13): p. 1107-12). Cells were fixed on Days 5, 7, and 9 (representing 4, 6, and 8 days of exposure to drug or control, respectively) with 50% (w/v) trichloroacetic acid for 1 hour at 4° C., rinsed thoroughly with water, and dried overnight. The dried cells were stained with 4% sulforhodamine B in 1% acetic acid, rinsed thoroughly and dried overnight. The bound dye was resuspended in 10 mM Tris and the absorbance was read at 492 nm. Percent growth inhibition (GI) was calculated as follows: %GI=(1−(absorbance sample/absorbance vehicle))×100. The absorbance value for each drug concentration and control represents the average of 6 replicates. The %GI was plotted against the log[drug] to generate the growth curves. The concentration of drug required to inhibit growth by 50% (GI50) was calculated for each time point.

[2] = tested on: Tubulin, purified from bovine brains; experiment: Tubulin polymerization in vitro; assay type: biochemical
Protocol: Tubulin, purified from bovine brains and prepared in PEM-buffer (80 mM PIPES, 0.5 mM MgCl2, 1 mM EGTA, pH 6.9) was thawed under vacuum on ice. Tubulin was incubated at 37° C. until almost melted and resuspended to a final concentration of 2 mg/ml and placed on ice. Peloruside A or Taxol® was added into transparent 96-well plates (Coming Incorp. Costar) and placed on ice. GTP (Sigma) was added to a final concentration of 1 mM. The 96 well plate was warmed to 37° C. and 120 μl of tubulin solution was added into each well. The absorbance of the reaction at 340 nm over time (each 40-50 sec.) was measured on the spectrophotometer TECAN SPECTRAFluor Plus. Peloruside A or Taxol® was added to the tubulin at a final concentration of 5 or 10 μM.

[3] = tested on: various cultured human tumor cell lines; experiment: Proliferation of a panel of tumor cell lines; assay type: cell-based; details: panel: colon, pancreas, melanoma, ovarian, renal, liver, lung, breast, prostate
Protocol: as §1, §2

[4] = tested on: 1A9 cells; experiment: Cell Titer-Glo cell viability, parent 1A9 cells; assay type: cell-based, human; details: parental 1A9 cells, 48 hours
Protocol: These cell lines have specific amino acid mutations in tubulin that prevent Taxol®-binding. […] Synthetic (+)-Peloruside A was used for the present example.
1A9, ptx10 and ptx22 cells were plated in 96-well plates to approximately 50% confluency. On the next day, Taxol® or Peloruside A was added to each well and incubated for 48 hours. A final concentration of 1, 2, 3, 4, 5, 8, 10, 20, 30, 50, 100, 300, 500, or 1000 nM of Taxol® was used. A final concentration of 10, 20, 30, 40, 50 or 70 nM of Peloruside A was used. Cell viability was measured using the Cell Titer-Glo Luminescent Cell Viability Assay (Promega). FIGS. 80-82 show bar graphs of cell viability at various concentrations of Peloruside A and Taxol®.

[5] = tested on: DU-145; experiment: SRB cytotoxicity assay, DU-145; assay type: cell-based; details: Homo sapiens
Protocol: as §1, §2

Row | SMILES | GI50 ([1]; NCI-H460, 96 h) | GI50 ([1]; NCI-H460, 144 h) | GI50 ([1]; NCI-H460, 192 h) | polymerization of tubulin dimers into microtubule polymers (microtubule-stabilizing activity) [2] | tubulin stabilization activity ([2]; 5 or 10 μM, 37° C., absorbance at 340 nm) | inhibition of proliferation of tumor cell lines [3] | inhibition of proliferation of tumor cell lines ([3]; listed as ent-40) | inhibition of cell growth (antimitotic activity) [4] | GI50 ([5]; DU-145, 96 h) | GI50 ([5]; DU-145, 144 h) | GI50 ([5]; DU-145, 192 h) | GI50 ([1]; NCI-H460, 96 h, NCl-H460, Lung, 4 Days, read-out: GI50) | GI50 ([1]; NCI-H460, 144 h, NCl-H460, Lung, 6 Days, read-out: GI50) | GI50 ([1]; NCI-H460, 192 h, NCl-H460, Lung, 8 Days, read-out: GI50) | GI50 ([5]; 96 h, DU-145, Prostate, 4 Days, read-out: GI50) | GI50 ([5]; 144 h, DU-145, Prostate, 6 Days, read-out: GI50) | GI50 ([5]; 192 h, DU-145, Prostate, 8 Days, read-out: GI50)
1 | CC[C@H](/C=C(/C)C1C[C@@H](OC)CC(O)C(C)(C)C2(O)OC(C[C@@H](OC)C2O)C[C@@H](OC)[C@H](O)C(=O)O1)CO (single isomer, unassigned; (+)) [Peloruside A, (+)-Peloruside A] | 8.27 nM | 5.38 nM | 4.77 nM | did polymerize tubulin dimers into microtubule polymers | potent tubulin stabilization activity | inhibited proliferation | did inhibit the growth | potent antimitotic activity | 9.2 nM | 3.25 nM | 2.94 nM |  |  |  |  |  | 
2 | CC(=O)O[C@H]1C(=O)[C@@]2(C)[C@H]([C@H](OC(=O)c3ccccc3)[C@]3(O)C[C@H](OC(=O)[C@H](O)[C@@H](NC(=O)c4ccccc4)c4ccccc4)C(C)=C1C3(C)C)[C@]1(OC(C)=O)CO[C@@H]1C[C@@H]2O [Paclitaxel, paclitaxel, reference compound] |  |  |  |  |  |  |  |  |  |  |  | 0.25 nM | 0.57 nM | 0.56 nM | 0.54 nM | 0.53 nM | 0.49 nM
